# Test results as given in patent publication US6620985B1, “PAD4 nucleic acid compositions from Arabidopsis and methods therefor” (University of Maryland Biotechnology Institute, priority 1998, dated 2003).
# Columns and labels:
# [1] = test system: PR-1; experiment: PR-1 expression (RNA blot) after SA treatment; assay type: in vivo, Arabidopsis thaliana
# Description: Plants and Growth Conditions. Wild-type plants (Arabidopsis thaliana ecotype Columbia (Col)) and pad4 plants from a line that had been backcrossed four times to the wild-type parent (Col) (Glazebrook et al., 1996, Genetics 143, 973-982) were used in this study. Arabidopsis ecotype Keswick (Ksk) was provided by Eric Holub (Horticulture Research International, Warwick, UK). Arabidopsis ecotype Landsberg erecta (Ler) plants carrying the nahG transgene were provided by Xinnian Dong (Bowling et al., 1994, Plant Cell 6, 1845-1857). nahG mutant plants used in this example, and all other examples, were of the Ler ecotype. Plants were grown in pots in Metro-Mix 200 soil (Scotts-Sierra Horticultural Products Company, Marysville, Ohio) in a growth chamber (22±2° C., 85% relative humidity, 100 μE s^−1 m^−2 fluorescent illumination) on a 12-hr light/dark cycle. Fully-expanded leaves of four-week old plants were used.
# Inoculations with Bacteria and Treatment with Chemicals. Pseudomonas syringae pv maculicola (Psm) ES4326 (Dong et al., 1991, Plant Cell 3, 61-72; Crute et al., 1994, in Arabidopsis, eds. Meyerowitz & Somerville, Cold Spring Harbor Press, NY, pp. 705-747), Pseudomonas. syringae pv tomato (Pst) DC3000 (Cuppels, 1986, Appl. Environ. Microbiol. 52, 323-327) and Xanthomonas campestris pv campestris (Xcc) BP109 (Weiss et al., 1994, J. Bacteriol. 176, 3354-3359) have been described. […]
# [2] = test system: Psm ES4326; experiment: Psm ES4326 growth in plants sprayed with SA; assay type: in vivo, Pseudomonas syringae pv maculicola; conditions: 5 mM SA sprayed one day before infection; titer three days after infection; wild-type and pad4-1
# Description: (§1) Inoculations with Bacteria and Treatment with Chemicals. Pseudomonas syringae pv maculicola (Psm) ES4326 (Dong et al., 1991, Plant Cell 3, 61-72; Crute et al., 1994, in Arabidopsis, eds. Meyerowitz & Somerville, Cold Spring Harbor Press, NY, pp. 705-747), Pseudomonas. syringae pv tomato (Pst) DC3000 (Cuppels, 1986, Appl. Environ. Microbiol. 52, 323-327) and Xanthomonas campestris pv campestris (Xcc) BP109 (Weiss et al., 1994, J. Bacteriol. 176, 3354-3359) have been described. The avirulence gene avrRpt2 was carried on plasmid pLH12 as described (Dong et al., 1991, Plant Cell 3, 61-72; Whalen et al., 1991, Plant Cell 3, 49-59). P. syringae strains were grown in King's B medium supplemented with appropriate antibiotics (Glazebrook and Ausubel, 1994, Proc. Natl. Acad. Sci. USA 91, 8955-8959), and Xcc BP1 09 was grown in Luria-Bertani medium supplemented with 50 μg/mL rifampicin. Bacteria were infiltrated into Arabidopsis plants as described (Glazebrook and Ausubel, 1994, PNAS USA 91, 8955-8959; Glazebrook et al., 1996, Genetics 146: 381-392). For camalexin assays, the bacterial dose for P. syringae strains was 3×10^4 colony-forming units (cfu)/cm^2 leaf area (equivalent to OD600=0.006); for Xcc BP109 it was 5×10^5 cfu/cm^2 (OD600=0.1). […]
# [3] = test system: camalexin synthesis; experiment: Camalexin assay in Psm ES4326-infected leaves; assay type: in vivo, Arabidopsis thaliana; conditions: SA sprayed one day before Psm ES4326 infection, assayed two days after infection
# Description: as §1
# Phytoalexin Quantitation. […]
# [4] = test system: PAD4 mRNA; experiment: PAD4 RNA blot analysis after SA treatment; assay type: in vivo, Arabidopsis thaliana; conditions: 5 mM SA
# Description: Inoculations with Bacteria and Treatment with Chemicals. Pseudomonas syringae pv maculicola (Psm) ES4326 (Dong et al., 1991, Plant Cell 3, 61-72; Crute et al., 1994, in Arabidopsis, eds. Meyerowitz & Somerville, Cold Spring Harbor Press, NY, pp. 705-747), Pseudomonas. syringae pv tomato (Pst) DC3000 (Cuppels, 1986, Appl. Environ. Microbiol. 52, 323-327) and Xanthomonas campestris pv campestris (Xcc) BP109 (Weiss et al., 1994, J. Bacteriol. 176, 3354-3359) have been described. The avirulence gene avrRpt2 was carried on plasmid pLH12 as described (Dong et al., 1991, Plant Cell 3, 61-72; Whalen et al., 1991, Plant Cell 3, 49-59). P. syringae strains were grown in King's B medium supplemented with appropriate antibiotics (Glazebrook and Ausubel, 1994, Proc. Natl. Acad. Sci. USA 91, 8955-8959), and Xcc BP1 09 was grown in Luria-Bertani medium supplemented with 50 μg/mL rifampicin. Bacteria were infiltrated into Arabidopsis plants as described (Glazebrook and Ausubel, 1994, PNAS USA 91, 8955-8959; Glazebrook et al., 1996, Genetics 146: 381-392). For camalexin assays, the bacterial dose for P. syringae strains was 3×10^4 colony-forming units (cfu)/cm^2 leaf area (equivalent to OD600=0.006); for Xcc BP109 it was 5×10^5 cfu/cm^2 (OD600=0.1). For experiments involving extraction of total RNA from infected leaves, Psm ES4326 and Psm ES4326 carrying avrRpt2 were introduced at a dose of 10^4 cfu/cm^2 leaf area (equivalent to OD600=0.002). For determination of Psm ES4326 growth, plants were infected with Psm ES4326 at a dose of 10^3 cfu/cm^2 leaf area (equivalent to OD600=0.0002). After […] were excised and bacterial growth was assayed as described (Glazebrook et al., 1996, Genetics 143, 973-982). Data are reported as means and standard deviations of the log(cfu/cm^2) of six replicates. For chemical treatment, plants were sprayed with 5 mM SA or 5 mM silver nitrate with 0.02% Silwet L-77 (Lehle Seeds, Tucson, Ariz.) to reduce surface tension. Control plants were sprayed with water containing 0.02% Silwet L-77.
# PAD4 RNA Blot Analysis. […]
smiles,measurement,setting,value
"O=C(O)c1ccccc1O [SA, salicylic acid]",PR-1 mRNA level in pad4-1 plants,"[1]; 5 mM SA one day before Psm ES4326 infection, two days after infection",comparable to that in wild-type plants
same,PR-1 expression in response to SA,"[1]; plants sprayed with 5 mM SA, wild-type and pad4-1, monitored for several days",induced similar levels of PR-1 expression in wild-type and pad4-1 plants
same,resistance to Psm ES4326 (bacterial titer),[2],induced comparable levels of resistance to Psm ES4326 in wild-type and pad4-1 plants
same,camalexin levels in wild-type plants,[3],little effect on camalexin levels
same,camalexin levels in pad4-1 plants,[3]; vs not pretreated,much higher camalexin levels
same,PAD4 transcript levels in npr1-1 plants,[4]; six and twelve hours after treatment,undetectable
same,PAD4 transcript levels in wild-type plants,"[4]; wild-type (Col), six and twelve hours after treatment",markedly detectable
same,PAD4 mRNA levels,"[4]; wild-type (Col, Ler), pad4-1, pad4-3, pad4-4 plants",increased rapidly after SA treatment
